Data published in the supplement of paper PMC11061612.

Columns and labels:
[1] = tested on: SCC-9 (Oral Cavity Carcinoma); test: combination Emax (second highest fraction inhibited in the dose matrix, 72 h); higher = more inhibition; extreme values may be limits of the assay
Procedure, shortened: (§1)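 Cell lines grown in DMEM/F12 or RPMI with 10% FBS were plated in 1536-well plates and held 24 hours at 37°C, 5% CO2 before 72 hours of exposure to two-drug dose matrices, with DMSO typically at 0.2%. CellTiter-Glo 2.0 luminescence gave viability, which was converted to inhibition. Vehicle wells were set to 0 and blank wells to 1. Combination Emax is the second-highest inhibition in the matrix, and Bliss excess is the observed combination effect minus the expected EA + EB − EA·EB, where EA and EB are the single-agent effects.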

[2] = tested on: SNU-C1 (Colorectal Carcinoma); test: as above
Procedure, shortened: as §1

[3] = tested on: NCI-N87 (Gastric Carcinoma); test: as above
Procedure, shortened: as §1

[4] = tested on: VMRC-LCD (Lung Adenocarcinoma); test: as above
Procedure, shortened: as §1

[5] = tested on: LC4-1 (B-Lymphoblastic Leukemia); test: as above
Procedure, shortened: as §1

NB7 (Neuroblastoma) [6] = test: as above
Procedure, shortened: as §1

[7] = tested on: H-EMC-SS (Chondrosarcoma); test: as above
Procedure, shortened: as §1

EW-3 (Ewing's Sarcoma) [8] = test: as above
Procedure, shortened: as §1

[9] = tested on: TGBC11TKB (Gastric Carcinoma); test: as above
Procedure, shortened: as §1

[10] = tested on: KINGS-1 (Low Grade Glioma); test: as above
Procedure, shortened: as §1

[11] = tested on: JHH-7 (Hepatocellular Carcinoma); test: as above
Procedure, shortened: as §1

[12] = tested on: HSC-2 (Oral Cavity Carcinoma); test: as above
Procedure, shortened: as §1

[13] = tested on: OCUM-1 (Gastric Carcinoma); test: as above
Procedure, shortened: as §1

GI-1 (Glioblastoma) [14] = test: as above
Procedure, shortened: as §1

[15] = tested on: OCUB-M (Breast Carcinoma); test: as above
Procedure, shortened: as §1

[16] = tested on: SCC-9 (Oral Cavity Carcinoma); test: Bliss excess, mean over the matrix (fraction); higher = more synergy
Procedure, shortened: as §1

[17] = tested on: SNU-C1 (Colorectal Carcinoma); test: as above
Procedure, shortened: as §1

[18] = tested on: NCI-N87 (Gastric Carcinoma); test: as above
Procedure, shortened: as §1

[19] = tested on: VMRC-LCD (Lung Adenocarcinoma); test: as above
Procedure, shortened: as §1

[20] = tested on: LC4-1 (B-Lymphoblastic Leukemia); test: as above
Procedure, shortened: as §1

NB7 (Neuroblastoma) [21] = test: as above
Procedure, shortened: as §1

[22] = tested on: H-EMC-SS (Chondrosarcoma); test: as above
Procedure, shortened: as §1

EW-3 (Ewing's Sarcoma) [23] = test: as above
Procedure, shortened: as §1

[24] = tested on: TGBC11TKB (Gastric Carcinoma); test: as above
Procedure, shortened: as §1

[25] = tested on: KINGS-1 (Low Grade Glioma); test: as above
Procedure, shortened: as §1

[26] = tested on: JHH-7 (Hepatocellular Carcinoma); test: as above
Procedure, shortened: as §1

[27] = tested on: HSC-2 (Oral Cavity Carcinoma); test: as above
Procedure, shortened: as §1

[28] = tested on: OCUM-1 (Gastric Carcinoma); test: as above
Procedure, shortened: as §1

GI-1 (Glioblastoma) [29] = test: as above
Procedure, shortened: as §1

[30] = tested on: OCUB-M (Breast Carcinoma); test: as above
Procedure, shortened: as §1
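Throughout, for Bliss excess, mean over the matrix: after 72 h of two-drug dosing.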

SMILES | combination Emax [1] | combination Emax [2] | combination Emax [3] | combination Emax [4] | combination Emax [5] | combination Emax (NB7 (Neuroblastoma) [6]) | combination Emax [7] | combination Emax (EW-3 (Ewing's Sarcoma) [8]) | combination Emax [9] | combination Emax [10] | combination Emax [11] | combination Emax [12] | combination Emax [13] | combination Emax (GI-1 (Glioblastoma) [14]) | combination Emax [15] | Bliss excess [16] | Bliss excess [17] | Bliss excess [18] | Bliss excess [19] | Bliss excess [20] | Bliss excess (NB7 (Neuroblastoma) [21]) | Bliss excess [22] | Bliss excess (EW-3 (Ewing's Sarcoma) [23]) | Bliss excess [24] | Bliss excess [25] | Bliss excess [26] | Bliss excess [27] | Bliss excess [28] | Bliss excess (GI-1 (Glioblastoma) [29]) | Bliss excess [30]
C=CCn1c(=O)c2cnc(Nc3ccc(N4CCN(C)CC4)cc3)nc2n1-c1cccc(C(C)(C)O)n1 [AZD1775] + CCc1c2c(nc3ccc(O)cc13)-c1cc3c(c(=O)n1C2)COC(=O)[C@]3(O)CC [SN-38] (first compound max 1 µM, partner max 0.3 µM) | 0.557 | 0.646 | 0.8 | 0.591 | 0.934 | 0.97 | 0.561 | 0.872 | 0.914 | 0.495 | 0.43 | 0.952 | 0.65 | 0.988 | 0.931 | -0.0365 | -0.0837 | -0.0855 | -0.126 | -0.0519 | 0.0564 | -0.0137 | -0.135 | -0.0338 | -0.0275 | 0.0117 | -0.0298 | -0.0758 | -0.0412 | 0.0926
C=CCn1c(=O)c2cnc(Nc3ccc(N4CCN(C)CC4)cc3)nc2n1-c1cccc(C(C)(C)O)n1 [AZD1775] + Nc1ccn([C@@H]2O[C@H](CO)[C@@H](O)C2(F)F)c(=O)n1 [Gemcitabine] (first compound max 1 µM, partner max 0.3 µM) | 0.375 | 0.485 | 0.735 | 0.6 | 0.945 | 0.721 | 0.649 | 0.904 | 0.918 | 0.341 | 0.399 | 0.947 | 0.656 | 0.916 | 0.955 | 0.0215 | -0.0308 | -0.0481 | -0.0497 | 0.0478 | 0.0441 | 0.014 | 0.0204 | 0.0011 | -0.0065 | -0.0298 | 0.0227 | 0.0616 | 0.0649 | 0.0679
CN(CCO)CC[C@H](CSc1ccccc1)Nc1ccc(S(=O)(=O)NC(=O)c2ccc(N3CCC([C@@H](O)c4ccccc4-c4ccc(Cl)cc4)CC3)cc2)cc1S(=O)(=O)C(F)(F)F [AZD4320] + CC(=O)O[C@H]1C(=O)[C@@]2(C)[C@H]([C@H](OC(=O)c3ccccc3)[C@]3(O)C[C@H](OC(=O)[C@H](O)[C@@H](NC(=O)c4ccccc4)c4ccccc4)C(C)=C1C3(C)C)[C@]1(OC(C)=O)CO[C@@H]1C[C@@H]2O [Paclitaxel] (first compound max 1 µM, 7x7, partner max 3 µM) | 0.745 | 0.829 | 0.921 | 0.918 | 1 | 0.94 | 0.672 | 0.961 | 0.994 | 0.966 | 0.951 | 1 | 0.955 | 1 | 1 | 0.109 | 0.179 | 0.182 | 0.0035 | 0.0047 | 0.131 | 0.0785 | 0.0269 | 0.0373 | 0.18 | 0.144 | 0.0087 | 0.0074 | 0.0374 | 0.0811
CN(CCO)CC[C@H](CSc1ccccc1)Nc1ccc(S(=O)(=O)NC(=O)c2ccc(N3CCC([C@@H](O)c4ccccc4-c4ccc(Cl)cc4)CC3)cc2)cc1S(=O)(=O)C(F)(F)F [AZD4320] + CS(=O)(=O)CCNCc1ccc(-c2ccc3ncnc(Nc4ccc(OCc5cccc(F)c5)c(Cl)c4)c3c2)o1 [Lapatinib] (first compound max 1 µM, 7x7, partner max 10 µM) | 0.99 | 0.666 | 0.982 | 0.923 | 1 | 0.189 | 0.439 | 0.984 | 0.674 | 0.962 | 0.971 | 1 | 1 | 0.962 | 0.887 | 0.0105 | 0.0215 | 0.0453 | 0.0981 | 0.0427 | 0.0034 | 0.0321 | 0.0104 | 0.0791 | 0.0401 | -0.0153 | 0.114 | 0.0032 | 0.0992 | –
CN(CCO)CC[C@H](CSc1ccccc1)Nc1ccc(S(=O)(=O)NC(=O)c2ccc(N3CCC([C@@H](O)c4ccccc4-c4ccc(Cl)cc4)CC3)cc2)cc1S(=O)(=O)C(F)(F)F [AZD4320] + Nc1ccn([C@@H]2O[C@H](CO)[C@@H](O)C2(F)F)c(=O)n1 [Gemcitabine] (first compound max 1 µM, 7x7, partner max 0.3 µM) | 0.539 | 0.533 | 0.822 | 0.288 | 1 | 0.556 | 0.832 | 0.91 | 0.882 | 0.502 | 0.284 | 1 | 0.905 | 0.936 | 0.812 | -0.0247 | -0.0482 | -0.0058 | -0.0095 | 0.0156 | -0.0153 | 0.0342 | -0.0522 | 0.0225 | -0.0068 | -0.033 | 0.0613 | 0.0262 | 0.112 | 0.0471
Cc1c2c(nn1C)CSCc1cc(n(C)n1)CSc1cc(c3ccccc3c1)OCCCc1c(C(=O)O)n(C)c3c-2c(Cl)ccc13 [AZD5991] + CC(=O)O[C@H]1C(=O)[C@@]2(C)[C@H]([C@H](OC(=O)c3ccccc3)[C@]3(O)C[C@H](OC(=O)[C@H](O)[C@@H](NC(=O)c4ccccc4)c4ccccc4)C(C)=C1C3(C)C)[C@]1(OC(C)=O)CO[C@@H]1C[C@@H]2O [Paclitaxel] (first compound max 1 µM, 7x7, partner max 3 µM) | 0.614 | 0.545 | 0.555 | 0.864 | 0.988 | 0.979 | 0.285 | 0.917 | 0.957 | 0.407 | 0.603 | 1 | 0.321 | 0.989 | 1 | – | -0.024 | -0.0041 | – | -0.0585 | 0.0901 | 0.0049 | -0.0365 | -0.0368 | 0.0134 | -0.0494 | -0.0534 | 0.027 | -0.0373 | 0.0387
Cc1c2c(nn1C)CSCc1cc(n(C)n1)CSc1cc(c3ccccc3c1)OCCCc1c(C(=O)O)n(C)c3c-2c(Cl)ccc13 [AZD5991] + CS(=O)(=O)CCNCc1ccc(-c2ccc3ncnc(Nc4ccc(OCc5cccc(F)c5)c(Cl)c4)c3c2)o1 [Lapatinib] (first compound max 1 µM, 7x7, partner max 10 µM) | 0.984 | 0.425 | 0.967 | 0.33 | 0.97 | 0.593 | 0.3 | 0.597 | 0.839 | 0.215 | 0.348 | 0.998 | 0.239 | 0.577 | 1 | 0.0313 | -0.0746 | 0.0077 | 0.0626 | 0.0538 | 0.0109 | -0.0134 | -0.028 | 0.0676 | -0.0437 | 0.0061 | 0.0287 | -0.0754 | -0.0104 | 0.0617
N#Cc1cnc(Nc2cc(NC[C@H]3CNCCO3)c(C(F)(F)F)cn2)cn1 [SRA737] + CCc1c2c(nc3ccc(O)cc13)-c1cc3c(c(=O)n1C2)COC(=O)[C@]3(O)CC [SN-38] (first compound max 10 µM, 7x7, partner max 0.3 µM) | 0.518 | 0.748 | 0.732 | 0.812 | 0.941 | 0.952 | 0.544 | 0.865 | – | 0.362 | 0.616 | 0.96 | 0.695 | 0.973 | 0.935 | 0.0297 | 0.0746 | -0.0812 | 0.102 | -0.129 | 0.0757 | -0.0264 | -0.0562 | 0.0031 | -0.0051 | 0.0753 | -0.0648 | -0.11 | 0.0169 | 0.231
N#Cc1cnc(Nc2cc(NC[C@H]3CNCCO3)c(C(F)(F)F)cn2)cn1 [SRA737] + O=c1[nH]cc(F)c(=O)[nH]1 [5-Fluorouracil] (first compound max 10 µM, 7x7, partner max 20 µM) | 0.319 | 0.803 | 0.628 | 0.668 | 0.847 | 0.431 | 0.198 | 0.663 | 0.869 | 0.122 | 0.392 | 0.382 | 0.416 | 0.683 | 0.302 | 0.053 | 0.0964 | 0.0586 | -0.0371 | -0.0214 | -0.0058 | -0.0371 | -0.0165 | 0.0518 | -0.029 | – | -0.0197 | -0.0345 | -0.0397 | 0.0349
